Test results taken from ChEMBL document CHEMBL4145553, “Design, synthesis, and biological evaluation of novel amide and hydrazide based thioether analogs targeting Histone deacteylase (HDAC) enzymes” (Eur J Med Chem, 2018).

Assays:
NCI-H23 = experiment: Growth inhibition of human NCI-H23 cells at 10 uM incubated for 48 hrs by sulforhodamine B assay relative to control; format: functional; conditions: NCI-H23, 48 h, values are per cent of control
NCI-H460 = experiment: Growth inhibition of human NCI-H460 cells at 10 uM incubated for 48 hrs by sulforhodamine B assay relative to control; format: functional; conditions: NCI-H460, 48 h, values are per cent of control
SN12C = experiment: Growth inhibition of human SN12C cells at 10 uM incubated for 48 hrs by sulforhodamine B assay relative to control; format: functional; conditions: values are per cent of control
RXF 393 = experiment: Growth inhibition of human RXF393 cells at 10 uM incubated for 48 hrs by sulforhodamine B assay relative to control; format: functional; conditions: RXF 393, 48 h, values are per cent of control
CAKI-1 = experiment: Growth inhibition of human Caki1 cells at 10 uM incubated for 48 hrs by sulforhodamine B assay relative to control; format: functional; conditions: CAKI-1, 48 h, values are per cent of control
A498 = experiment: Growth inhibition of human A498 cells at 10 uM incubated for 48 hrs by sulforhodamine B assay relative to control; format: functional; conditions: A498, 48 h, values are per cent of control
786-0 = experiment: Growth inhibition of human 786-0 cells at 10 uM incubated for 48 hrs by sulforhodamine B assay relative to control; format: functional; conditions: 786-0, 48 h, values are per cent of control
NCI/ADR-RES = experiment: Growth inhibition of human NCI/ADR-RES cells at 10 uM incubated for 48 hrs by sulforhodamine B assay relative to control; format: functional; conditions: values are per cent of control
UO-31 = experiment: Growth inhibition of human UO31 cells at 10 uM incubated for 48 hrs by sulforhodamine B assay relative to control; format: functional; conditions: UO-31, 48 h, values are per cent of control
PC-3 = experiment: Growth inhibition of human PC3 cells at 10 uM incubated for 48 hrs by sulforhodamine B assay relative to control; format: functional; conditions: PC-3, 48 h, values are per cent of control
Hs-578T = experiment: Growth inhibition of human Hs 578T cells at 10 uM incubated for 48 hrs by sulforhodamine B assay relative to control; format: functional; conditions: values are per cent of control
BT-549 = experiment: Growth inhibition of human BT549 cells at 10 uM incubated for 48 hrs by sulforhodamine B assay relative to control; format: functional; conditions: BT-549, 48 h, values are per cent of control
MDA-MB-468 = experiment: Growth inhibition of human MDA-MB-468 cells at 10 uM incubated for 48 hrs by sulforhodamine B assay relative to control; format: functional; conditions: MDA-MB-468, 48 h, values are per cent of control
SR = experiment: Growth of human SR cells at 10 uM incubated for 48 hrs by sulforhodamine B assay relative to control
KM12 = experiment: Growth of human KM12 cells at 10 uM incubated for 48 hrs by sulforhodamine B assay relative to control; conditions: KM12, 48 h
EKVX = experiment: Growth of human EKVX cells at 10 uM incubated for 48 hrs by sulforhodamine B assay relative to control
SNB-75 = experiment: Growth of human SNB75 cells at 10 uM incubated for 48 hrs by sulforhodamine B assay relative to control; conditions: SNB-75, 48 h
SNB-19 = experiment: Growth of human SNB19 cells at 10 uM incubated for 48 hrs by sulforhodamine B assay relative to control; conditions: SNB-19, 48 h
SF-295 = experiment: Growth of human SF295 cells at 10 uM incubated for 48 hrs by sulforhodamine B assay relative to control; conditions: SF-295, 48 h
SW-620 = experiment: Growth of human SW620 cells at 10 uM incubated for 48 hrs by sulforhodamine B assay relative to control; conditions: SW-620, 48 h
HT-29 = experiment: Growth of human HT-29 cells at 10 uM incubated for 48 hrs by sulforhodamine B assay relative to control; conditions: HT-29, 48 h
HCT-15 = experiment: Growth of human HCT15 cells at 10 uM incubated for 48 hrs by sulforhodamine B assay relative to control; conditions: HCT-15, 48 h
MOLT-4 = experiment: Growth of human MOLT4 cells at 10 uM incubated for 48 hrs by sulforhodamine B assay relative to control; conditions: MOLT-4, 48 h
OVCAR-8 = experiment: Growth of human OVCAR8 cells at 10 uM incubated for 48 hrs by sulforhodamine B assay relative to control; conditions: OVCAR-8, 48 h
OVCAR-3 = experiment: Growth of human OVCAR3 cells at 10 uM incubated for 48 hrs by sulforhodamine B assay relative to control; conditions: OVCAR-3, 48 h
LOX IMVI = experiment: Growth of human LOXIMVI cells at 10 uM incubated for 48 hrs by sulforhodamine B assay relative to control
HCC 2998 = experiment: Growth of human HCC2998 cells at 10 uM incubated for 48 hrs by sulforhodamine B assay relative to control; conditions: HCC 2998, 48 h
COLO 205 = experiment: Growth of human COLO205 cells at 10 uM incubated for 48 hrs by sulforhodamine B assay relative to control; conditions: COLO 205, 48 h
SK-MEL-2 = experiment: Growth of human SK-MEL-2 cells at 10 uM incubated for 48 hrs by sulforhodamine B assay relative to control; conditions: SK-MEL-2, 48 h
NCI-H522 = experiment: Growth of human NCI-H522 cells at 10 uM incubated for 48 hrs by sulforhodamine B assay relative to control; conditions: NCI-H522, 48 h
RPMI-8226 = experiment: Growth of human RPMI8226 cells at 10 uM incubated for 48 hrs by sulforhodamine B assay relative to control; conditions: RPMI-8226, 48 h
SK-MEL-28 = experiment: Growth of human SK-MEL-28 cells at 10 uM incubated for 48 hrs by sulforhodamine B assay relative to control; conditions: SK-MEL-28, 48 h
MDA-MB-435 = experiment: Growth of human MDA-MB-435 cells at 10 uM incubated for 48 hrs by sulforhodamine B assay relative to control; conditions: MDA-MB-435, 48 h

| Structure (SMILES) | growth, % of control at 10 µM (NCI-H23) | growth, % of control at 10 µM (NCI-H460) | growth, % of control at 10 µM (SN12C) | growth, % of control at 10 µM (RXF 393) | growth, % of control at 10 µM (CAKI-1) | growth, % of control at 10 µM (A498) | growth, % of control at 10 µM (786-0) | growth, % of control at 10 µM (NCI/ADR-RES) | growth, % of control at 10 µM (UO-31) | growth, % of control at 10 µM (PC-3) | growth, % of control at 10 µM (Hs-578T) | growth, % of control at 10 µM (BT-549) | growth, % of control at 10 µM (MDA-MB-468) | growth, % of control at 10 µM (SR) | growth, % of control at 10 µM (KM12) | growth, % of control at 10 µM (EKVX) | growth, % of control at 10 µM (SNB-75) | growth, % of control at 10 µM (SNB-19) | growth, % of control at 10 µM (SF-295) | growth, % of control at 10 µM (SW-620) | also measured |
| --- | --- | --- | --- | --- | --- | --- | --- | --- | --- | --- | --- | --- | --- | --- | --- | --- | --- | --- | --- | --- | --- |
| CCS/C(Nc1ccccc1)=C(\C#N)C(=O)N/N=C\c1ccc(Cl)cc1Cl | 41.3% | 8.05% | 34.5% | 2.63% | 31.5% | -2.1% | 31.8% | 10.8% | 41.9% | 31.5% | -6.44% | 45.4% | 19.6% | 19.5% | 28% | 47.4% | -6.89% | 19.6% | 17% | 18.6% | growth, % of control at 10 µM (HT-29): 9.53%; growth, % of control at 10 µM (HCT-15): 19.9%; growth, % of control at 10 µM (MOLT-4): 18.3%; growth, % of control at 10 µM (OVCAR-8): 28.6%; growth, % of control at 10 µM (OVCAR-3): 1.46%; growth, % of control at 10 µM (LOX IMVI): 34.4%; growth, % of control at 10 µM (HCC 2998): 48.4%; growth, % of control at 10 µM (COLO 205): 28.4%; growth, % of control at 10 µM (SK-MEL-2): 28.3%; growth, % of control at 10 µM (NCI-H522): 1.02%; growth, % of control at 10 µM (RPMI-8226): 9.68%; growth, % of control at 10 µM (SK-MEL-28): 60.5%; growth, % of control at 10 µM (MDA-MB-435): -34.5% |
| CCS/C(Nc1ccccc1)=C(\C#N)C(=O)Nc1ccc(C)cc1 | 94% | 98.8% | 94.3% | 103% | 86.8% | 79.4% | 87.1% | 98.4% | 75.3% | 97% | 98.9% | 103% | 103% | 64.2% | 96.6% | 97.4% | 109% | 93.3% | 95.7% | 101% | growth, % of control at 10 µM (HT-29): 89%; growth, % of control at 10 µM (HCT-15): 94.8%; growth, % of control at 10 µM (MOLT-4): 56.6%; growth, % of control at 10 µM (OVCAR-8): 96%; growth, % of control at 10 µM (OVCAR-3): 97.9%; growth, % of control at 10 µM (LOX IMVI): 98.8%; growth, % of control at 10 µM (HCC 2998): 94.8%; growth, % of control at 10 µM (COLO 205): 117%; growth, % of control at 10 µM (SK-MEL-2): 85.3%; growth, % of control at 10 µM (NCI-H522): 71.2%; growth, % of control at 10 µM (RPMI-8226): 86%; growth, % of control at 10 µM (SK-MEL-28): 109%; growth, % of control at 10 µM (MDA-MB-435): 102% |
| CC(C)(C)S/C(Nc1ccccc1)=C(\C#N)C(=O)Nc1ccccc1 | 99.8% | 103% | 98.4% | 101% | 95% | 92.9% | 94.3% | 100% | 86.1% | 95.2% | 99.6% | 99.4% | 92.8% | 82.3% | 114% | 101% | 96.5% | 92.5% | 94.4% | 103% | growth, % of control at 10 µM (HT-29): 94.6%; growth, % of control at 10 µM (HCT-15): 101%; growth, % of control at 10 µM (MOLT-4): 69.7%; growth, % of control at 10 µM (OVCAR-8): 99.8%; growth, % of control at 10 µM (OVCAR-3): 108%; growth, % of control at 10 µM (LOX IMVI): 98.8%; growth, % of control at 10 µM (HCC 2998): 106%; growth, % of control at 10 µM (COLO 205): 102%; growth, % of control at 10 µM (SK-MEL-2): 94%; growth, % of control at 10 µM (NCI-H522): 80.3%; growth, % of control at 10 µM (RPMI-8226): 95.3%; growth, % of control at 10 µM (SK-MEL-28): 105%; growth, % of control at 10 µM (MDA-MB-435): 104% |
